The values below come from PMC4912613, “A broad analysis of resistance development in the malaria parasite” (Nature Communications, 2016).

Each structure is given as a SMILES string. Read-outs that look alike come from different tables or passages of the source.

The test system of one data set is P. falciparum strain 3D7. Briefly: Asexual blood stage 3H-hypoxanthine incorporation assay, 3D7. Type of data set: cell-based, Plasmodium falciparum.
Data set [1] has as its system P. berghei exoerythrocytic forms. The data set can be described thus: Liver-stage P. berghei hepatocyte invasion and development assay (luminescence, HepG2). Type of data set: cell-based, Plasmodium berghei. The following applies: for EC50: HepG2, 48 h, read-out: Liver Stage EC50; for EC50 fold shift compared to asexual stage: Liver Stage EC50: liver stage EC50 / 3D7 EC50. A digest of the protocol: (§1)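 HepG2 cells were pretreated with compound for 2 h, then infected with fresh P. berghei sporozoites. After 48 h, exoerythrocytic-form viability was read by BrightGlo luminescence; hepatocyte toxicity was tested in parallel. EC50s came from 12-point curves run in duplicate, starting at 5 μM or 50 μM.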

Another data set relates to HepG2. Briefly: Hepatocyte toxicity. Type of data set: cell-based, human. To be noted: for Hepatocyte Toxicity: HepG2; for EC50 fold shift compared to asexual stage: Hepatocyte Toxicity: hepatocyte toxicity / 3D7 EC50; for Liver Stage / Hepatocyte Toxicity: toxicity fold shift for the liver stage (hepatocyte toxicity vs liver stage EC50). A digest of the protocol:
as §1

For data set [2], the system named is CYTbQi (cytb G33A, parent Dd2). Briefly: Cross-resistance EC50 assay, CYTbQi. It is filed as cell-based. To be noted: Plasmodium falciparum; SYBR green 72 hour assay; synchronized parasites; 384-well format; strain CYTbQi (Dd2 parent). In a few lines: (§2)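 EC50 fold shifts were derived from blood-stage growth assays run in parallel on mutant and parent strains within one laboratory. Growth was measured either by tritiated hypoxanthine uptake (48 h) or SYBR Green I staining (72 h).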

Data set [3] deals with GNF449-R2 (PfATP4 I203L and P990R, parent Dd2). Briefly: Cross-resistance EC50 assay, GNF449-R2. Type of data set: cell-based. To be noted: Plasmodium falciparum, SYBR green 72 hour assay, asynchronized parasites, 96-well or 1536-well format. A digest of the protocol:
as §2

The test system of data set [4] is TM90C2A (DHFR, folate pathway; compared with 3D7). Briefly: Cross-resistance EC50 assay, TM90C2A. It is filed as cell-based. The following applies: Plasmodium falciparum, 48 h, read-out: TM90C2A (3D7 Parent) Average EC50. In a few lines: as §2
[5] abbreviates: Plasmodium falciparum, 3D7, asexual stage, P. falciparum 3D7, read-out: 3D7 EC50.
The mark [6] stands for this setting: Plasmodium berghei, P. berghei sporozoites.

Consider `COc1cc(-c2nc(-c3ccccc3)c(-c3ccccc3)[nH]2)ccc1OCCN(C)C` [MMV027496], for which the EC50 in the data set with P. falciparum strain 3D7 (setting [5]) worked out at 0.111 µM; in data set [1] (setting [6]), 3.17 µM; in data set [2] it was 0.317 µM; in data set [3], 2.33 µM; in data set [4], 0.3 µM. Further, the “EC50 fold shift compared to asexual stage: Liver Stage EC50” value (“EC50 fold shift … Liver Stage EC50” below) in data set [1] worked out at 28.59. Moreover, the “Hepatocyte Toxicity” value with HepG2 is 13.49 µM. Besides, the “EC50 fold shift compared to asexual stage: Hepatocyte Toxicity” value (from here on “EC50 fold shift … Hepatocyte Toxicity”) in the data set with HepG2 came out at 121.53. Moreover, the “Liver Stage / Hepatocyte Toxicity” value in the data set on HepG2 is 4.25.
In the case of `COc1cc(C(=O)ON=C(N)Cc2cccc3ccccc23)cc(OC)c1OC` [MMV666687], the EC50 in the data set on P. falciparum strain 3D7 (setting [5]) worked out at 0.348 µM; in data set [1] (setting [6]) it was 21.1 µM; in data set [2] it was 0.588 µM; in data set [3] it was 0.813 µM; in data set [4] it was 0.18 µM. For the same molecule, the “Hepatocyte Toxicity” value in the data set with HepG2 came out at 31.52 µM. In the data set on HepG2, the “Liver Stage / Hepatocyte Toxicity” value turned out to be 1.50.
Regarding `CCN(CC)S(=O)(=O)c1ccc(-c2csc(Nc3ccc(C)c(C)c3)n2)cc1` [MMV009108], the EC50 stood at 0.93 µM with P. falciparum strain 3D7 (setting [5]); 4.79 µM in data set [1] (setting [6]); 0.416 µM in data set [2]; 1.01 µM in data set [3]; 0.445 µM in data set [4]. Besides, the “EC50 fold shift … Liver Stage EC50” value in data set [1] came to 5.15. Further, in the data set on HepG2, the “Hepatocyte Toxicity” value is more than 5 µM. Moreover, the “EC50 fold shift … Hepatocyte Toxicity” value in the data set on HepG2 is on record as more than 5.3. Moreover, the “Liver Stage / Hepatocyte Toxicity” value in the data set on HepG2 is listed as more than 1.
Turning to `COc1ccccc1CNC(=O)CCn1c(=O)[nH]c2ccsc2c1=O` [MMV019066], the EC50 is 1.67 µM with P. falciparum strain 3D7 (setting [5]); 1.67 µM in the data set with P. falciparum strain 3D7 (asexual stage, P. falciparum 3D7, read-out: 3D7 EC50); 0.31 µM in data set [1] (P. berghei sporozoites); 0.318 µM in data set [1] (setting [6]); 0.074 µM in data set [2]; 0.008 µM in data set [3]. Besides, in data set [4], the EC50 turned out to be 1.62 µM. In addition, the “EC50 fold shift … Liver Stage EC50” value in data set [1] amounted to 0.19. In addition, the “Hepatocyte Toxicity” value in the data set with HepG2 is more than 5 µM. For the same molecule, the “EC50 fold shift … Hepatocyte Toxicity” value with HepG2 is on record as more than 3. Besides, in the data set with HepG2, the “Liver Stage / Hepatocyte Toxicity” value is recorded as more than 15.
Regarding `CNCc1ccc2nc(-c3coc(Cc4cc(Cl)ccc4OCC(C)C)n3)[nH]c2c1.Cl.Cl` [MMV026596], the 50% effective concentration (EC50) was 0.346 µM with P. falciparum strain 3D7 (setting [5]); 6.47 µM in data set [1] (setting [6]); 0.431 µM in data set [2]; 0.307 µM in data set [3]; 0.267 µM in data set [4]. In addition, the “EC50 fold shift … Liver Stage EC50” value in data set [1] was determined as 18.71. The “Hepatocyte Toxicity” value in the data set with HepG2 came to 13.42 µM. Further, in the data set on HepG2, the “EC50 fold shift … Hepatocyte Toxicity” value came out at 38.79. For the same molecule, the “Liver Stage / Hepatocyte Toxicity” value in the data set on HepG2 is given as 2.07.
Turning to `O=C(NCC(CCCN1CCC(c2c[nH]c3ccccc23)CC1)c1ccccc1)Nc1ccc(Cl)c(Cl)c1` (stereo not drawn) [MMV029272], the EC50 turned out to be 0.136 µM in the data set with P. falciparum strain 3D7 (setting [5]); 1.8 µM in data set [1] (setting [6]); 0.619 µM in data set [2]; 0.373 µM in data set [3]; 0.415 µM in data set [4]. Also, the “EC50 fold shift … Liver Stage EC50” value in data set [1] is recorded as 13.22. For the same molecule, the “Hepatocyte Toxicity” value with HepG2 stood at 5.366 µM. Besides, in the data set on HepG2, the “EC50 fold shift … Hepatocyte Toxicity” value worked out at 39.46. For the same molecule, in the data set on HepG2, the “Liver Stage / Hepatocyte Toxicity” value was 2.98.
For the molecule `Cc1ccc(S(=O)(=O)n2cc(-c3ccnc(N)c3)c3cc(Br)cnc32)cc1` [MMV024114], the 50% effective concentration (EC50) came out at 0.265 µM in the data set on P. falciparum strain 3D7 (setting [5]); 5.94 µM in data set [1] (setting [6]); 1.39 µM in data set [2]; 3.34 µM in data set [3]; 1.05 µM in data set [4]. For the same molecule, in data set [1], the “EC50 fold shift … Liver Stage EC50” value is reported as 22.40. Also, in the data set on HepG2, the “Hepatocyte Toxicity” value stood at 9.39 µM. Also, the “EC50 fold shift … Hepatocyte Toxicity” value with HepG2 came to 35.43. The “Liver Stage / Hepatocyte Toxicity” value in the data set with HepG2 worked out at 1.58.
For the molecule `Nc1ccc(-c2nc3cc(Oc4ccc(Oc5ccc6[nH]c(-c7ccc(N)cc7)nc6c5)cc4)ccc3[nH]2)cc1` [MMV011895], the EC50 with P. falciparum strain 3D7 (setting [5]) was 0.16 µM; in data set [1] (setting [6]) it was more than 50 µM; in data set [2], 0.267 µM; in data set [3], 0.644 µM; in data set [4] it was 0.356 µM. In addition, the “EC50 fold shift … Liver Stage EC50” value in data set [1] is more than 300. Also, the “Hepatocyte Toxicity” value with HepG2 was more than 50 µM. The “EC50 fold shift … Hepatocyte Toxicity” value in the data set with HepG2 is on record as more than 300.
For `COC(=O)c1ccc(C2C3=C(O)CC(c4ccc(F)cc4)CC3=Nc3ccccc3N2C(=O)c2ccccc2)cc1` (stereo not drawn) [MMV011438], the concentration for a half-maximal effect (EC50) with P. falciparum strain 3D7 (setting [5]) stood at 0.431 µM; in data set [1] (setting [6]), 0.621 µM; in data set [2] it was 0.235 µM; in data set [3], 0.552 µM; in data set [4], 0.322 µM. Also, in data set [1], the “EC50 fold shift … Liver Stage EC50” value stood at 1.44. The “Hepatocyte Toxicity” value in the data set with HepG2 was more than 50 µM. In the data set with HepG2, the “EC50 fold shift … Hepatocyte Toxicity” value is recorded as more than 116. Besides, the “Liver Stage / Hepatocyte Toxicity” value with HepG2 was more than 80.
For the molecule `COc1cc(-c2nc(-c3ccccc3)c(-c3ccccc3)[nH]2)cc(OC)c1O` [MMV020750], the EC50 in the data set with P. falciparum strain 3D7 (setting [5]) was 0.342 µM; in data set [1] (setting [6]), more than 5 µM; in data set [2] it was 0.927 µM; in data set [3], 1.47 µM; in data set [4], 0.674 µM. For the same molecule, the “EC50 fold shift … Liver Stage EC50” value in data set [1] is reported as 23.86. In the data set on HepG2, the “Hepatocyte Toxicity” value was more than 5 µM. Further, in the data set with HepG2, the “EC50 fold shift … Hepatocyte Toxicity” value is reported as more than 15. Further, the “Liver Stage / Hepatocyte Toxicity” value in the data set with HepG2 was more than 1.
On to `Nc1ccc(-c2nc3cc(Cc4ccc5[nH]c(-c6ccc(N)cc6)nc5c4)ccc3[nH]2)cc1` [MMV665943], for which the EC50 in the data set with P. falciparum strain 3D7 (setting [5]) came out at 0.316 µM; in data set [1] (setting [6]) it was 5.95 µM; in data set [2], 0.45 µM; in data set [3], 0.588 µM; in data set [4], 0.298 µM. Besides, the “EC50 fold shift … Liver Stage EC50” value in data set [1] is 18.84. Moreover, the “Hepatocyte Toxicity” value with HepG2 was determined as 14.29 µM. In addition, in the data set on HepG2, the “EC50 fold shift … Hepatocyte Toxicity” value is on record as 45.22. In addition, the “Liver Stage / Hepatocyte Toxicity” value in the data set on HepG2 is 2.40.
`Cl.c1ccc2c(NCCCCCCNc3c4c(nc5ccccc35)CCCC4)c3c(nc2c1)CCCC3` [MMV019555]: the concentration giving a half-maximal response (EC50) in the data set with P. falciparum strain 3D7 (Plasmodium falciparum, 3D7, read-out: 3D7 EC50) stood at 0.0873 µM; in data set [1] (Plasmodium berghei), 0.319 µM; in data set [2] it was 0.227 µM; in data set [3], 0.262 µM; in data set [4] it was 0.28 µM. Also, the “Hepatocyte Toxicity” value with HepG2 was 4.811 µM. Also, in the data set on HepG2, the “Liver Stage / Hepatocyte Toxicity” value is 15.06.
With `Cc1cc(Nc2ccc(OCc3ccccc3)cc2)nc2cc(O)ccc12` [MMV007181], the concentration for a half-maximal effect (EC50) in the data set with P. falciparum strain 3D7 (setting [5]) was 0.346 µM; in data set [1] (setting [6]), 4.79 µM; in data set [2], 0.144 µM; in data set [3], 0.153 µM; in data set [4], 0.278 µM. For the same molecule, the “EC50 fold shift … Liver Stage EC50” value in data set [1] was 13.83. For the same molecule, the “Hepatocyte Toxicity” value in the data set with HepG2 was found to be 7.952 µM. Besides, the “EC50 fold shift … Hepatocyte Toxicity” value in the data set with HepG2 came out at 22.98. Moreover, in the data set on HepG2, the “Liver Stage / Hepatocyte Toxicity” value worked out at 1.66.
`Cc1ccc(Cn2c(N3CCC(C(=O)NCc4cccs4)CC3)nc3ccccc32)cc1` [MMV007564]: the EC50 in the data set on P. falciparum strain 3D7 (setting [5]) worked out at 0.58 µM; in data set [1] (setting [6]), 1.51 µM; in data set [2], 0.574 µM; in data set [3], 0.739 µM; in data set [4] it was 0.655 µM. Moreover, the “EC50 fold shift … Liver Stage EC50” value in data set [1] is on record as 2.60. In addition, the “Hepatocyte Toxicity” value in the data set on HepG2 was more than 6.6 µM. Moreover, the “EC50 fold shift … Hepatocyte Toxicity” value in the data set with HepG2 is more than 57. Also, the “Liver Stage / Hepatocyte Toxicity” value in the data set on HepG2 is on record as more than 21.
